Experimental data as given in patent US20190185471A1, “SOLID FORMS OF VENETOCLAX AND PROCESSES FOR THE PREPARATION OF VENETOCLAX” (DR. REDDY'S LABORATORIES LIMITED, priority 2016, published 2019).
Each block holds one molecule with its values, some of them ahead of it.

Key:
[1] = stability of the crystalline form over time; type: physicochemical
Description: In an embodiment, drying crystalline Form RT2 of Venetoclax may be carried out at temperatures and times sufficient to achieve desired quality of product. Drying may be carried out at about 30° C. or above at which crystalline form RT2 is stable and for any time period required for obtaining a desired quality, such as from about 5 minutes to 10 hours or longer. Crystalline form RT2 is stable for 3 months period or longer.

[2] = stability of the solid form under mechanical stress (grinding and milling); type: physicochemical
Excerpt: (§1) The present application provides a stable amorphous form of Venetoclax devoid of the problems indicated in the prior art and suitable for powder handling and downstream processes.

[3] = stability of the solid form under hygroscopic conditions (higher relative humidity); type: physicochemical; settings: higher relative humidity conditions of more than 60% RH
Excerpt: as §1

[4] = system: tumor cells that overexpress BCL-2; settings: nonclinical studies; cited from earlier work

period for which the crystalline form is stable [1]: ≥ 3 months
SMILES: CC1(C)CCC(CN2CCN(c3ccc(C(=O)NS(=O)(=O)c4ccc(NCC5CCOCC5)c([N+](=O)[O-])c4)c(Oc4cnc5[nH]ccc5c4)c3)CC2)=C(c2ccc(Cl)cc2)C1 [Crystalline form RT2]

stability under mechanical stress [2]: highly stable
stability under hygroscopic conditions [3]: stable
SMILES: CC1(C)CCC(CN2CCN(c3ccc(C(=O)NS(=O)(=O)c4ccc(NCC5CCOCC5)c([N+](=O)[O-])c4)c(Oc4cnc5[nH]ccc5c4)c3)CC2)=C(c2ccc(Cl)cc2)C1 [Amorphous form of Venetoclax]

SMILES: CC1(C)CCC(CN2CCN(c3ccc(C(=O)NS(=O)(=O)c4ccc(NCC5CCOCC5)c([N+](=O)[O-])c4)c(Oc4cnc5[nH]ccc5c4)c3)CC2)=C(c2ccc(Cl)cc2)C1 [Venetoclax]
cytotoxic activity [4]: demonstrated cytotoxic activity
